{"source": "patent US20210254056A1", "about": "“IDENTIFICATION AND TARGETED MODULATION OF GENE SIGNALING NETWORKS” (CAMP4 THERAPEUTICS CORPORATION, priority 2017, published 2021)", "test_system": "hepatocytes", "experiment": "RNA-seq of hepatocytes treated with Phase III failure compounds", "procedure": "RNA-seq was performed to determine the effects of the compounds on hepatocytes.\nSignificance was determined by the criteria of FPKM≥0.5, a log 2(fold-change)≥1, and a […]."}
{"smiles": "CCOC(=O)N1c2ccc(C(F)(F)F)cc2[C@@H](N(Cc2cc(C(F)(F)F)cc(C(F)(F)F)c2)C(=O)OC)C[C@H]1CC", "note": "[Torcetrapib]", "values": [{"measurement": "RNA-seq results, CYP2B6 expression", "result": 0.36}, {"measurement": "RNA-seq results, CYP2C19 expression", "result": 0.61}, {"measurement": "RNA-seq results, CYP2D6 expression", "result": "−0.16"}, {"measurement": "RNA-seq results, CYP3A4 expression", "result": 1.87}, {"measurement": "RNA-seq results, CYP7B1 expression", "result": 0.26}, {"measurement": "RNA-seq results, CYP39A1 expression", "result": 0.03}, {"measurement": "RNA-seq results: CYP2B6 expression", "result": 0.09}, {"measurement": "RNA-seq results: CYP2C19 expression", "result": "−0.14"}, {"measurement": "RNA-seq results: CYP2D6 expression", "result": 0.24}, {"measurement": "RNA-seq results: CYP3A4 expression", "result": 0.49}, {"measurement": "RNA-seq results: CYP7B1 expression", "result": "−0.44"}, {"measurement": "RNA-seq results: CYP39A1 expression", "result": 0}, {"measurement": "significant modulation of expression of disease genes", "setting": "RNA-seq, q≤0.05, hepatocytes, genes in the value or listed in the block", "result": "significantly (q≤0.05) modulate expression of the following genes: ACTG2, CYP3A4, ID1, KMT2D, and UTRN"}, {"measurement": "RNA-seq results: A1BG expression", "setting": "gene A1BG, hepatocytes", "result": "−0.38"}, {"measurement": "RNA-seq results: AGTR1 expression", "setting": "gene AGTR1, hepatocytes", "result": "−0.45"}, {"measurement": "RNA-seq results: AGXT expression", "setting": "gene AGXT, hepatocytes", "result": "−0.25"}, {"measurement": "RNA-seq results: AHI1 expression", "setting": "gene AHI1, hepatocytes", "result": 0.19}, {"measurement": "RNA-seq results: AMPD3 expression", "setting": "gene AMPD3, hepatocytes", "result": 0.28}, {"measurement": "RNA-seq results: AMT expression", "setting": "gene AMT, hepatocytes", "result": "−0.11"}, {"measurement": "RNA-seq results: ANGPTL3 expression", "setting": "gene ANGPTL3, hepatocytes", "result": "−0.46"}, {"measurement": "RNA-seq results: ANKS4B expression", "setting": "gene ANKS4B, hepatocytes", "result": "−0.02"}, {"measurement": "RNA-seq results: ANKS6 expression", "setting": "gene ANKS6, hepatocytes", "result": 0.19}, {"measurement": "RNA-seq results: ANPEP expression", "setting": "gene ANPEP, hepatocytes", "result": "−0.19"}, {"measurement": "RNA-seq results: AOC2 expression", "setting": "gene AOC2, hepatocytes", "result": 0.53}, {"measurement": "RNA-seq results: APOA2 expression", "setting": "gene APOA2, hepatocytes", "result": "−0.76"}, {"measurement": "RNA-seq results: APOA5 expression", "setting": "gene APOA5, hepatocytes", "result": "−0.36"}, {"measurement": "RNA-seq results: APOB expression", "setting": "gene APOB, hepatocytes", "result": 0.90}, {"measurement": "RNA-seq results: COG5 expression", "setting": "gene COG5, hepatocytes", "result": 0.24}, {"measurement": "RNA-seq results: COG6 expression", "setting": "gene COG6, hepatocytes", "result": 0.29}, {"measurement": "RNA-seq results: COL1A1 expression", "setting": "gene COL1A1, hepatocytes", "result": "−0.43"}, {"measurement": "RNA-seq results: COX6A1 expression", "setting": "gene COX6A1, hepatocytes", "result": 0.62}, {"measurement": "RNA-seq results: CP expression", "setting": "gene CP, hepatocytes", "result": "−0.27"}, {"measurement": "RNA-seq results: CPS1 expression", "setting": "gene CPS1, hepatocytes", "result": "−0.75"}, {"measurement": "RNA-seq results: CPT1A expression", "setting": "gene CPT1A, hepatocytes", "result": "−0.4"}, {"measurement": "RNA-seq results: CPT2 expression", "setting": "gene CPT2, hepatocytes", "result": "−0.1"}, {"measurement": "RNA-seq results: CROT expression", "setting": "gene CROT, hepatocytes", "result": "−0.33"}, {"measurement": "RNA-seq results: CSPP1 expression", "setting": "gene CSPP1, hepatocytes", "result": 0.17}, {"measurement": "RNA-seq results: CTC1 expression", "setting": "gene CTC1, hepatocytes", "result": "−0.2"}, {"measurement": "RNA-seq results: CTDSP2 expression", "setting": "gene CTDSP2, hepatocytes", "result": 0.03}, {"measurement": "RNA-seq results: CTH expression", "setting": "gene CTH, hepatocytes", "result": 2.52}, {"measurement": "RNA-seq results: CTNS expression", "setting": "gene CTNS, hepatocytes", "result": "−0.12"}, {"measurement": "RNA-seq results: CTSF expression", "setting": "gene CTSF, hepatocytes", "result": 0.3}, {"measurement": "RNA-seq results: CTSK expression", "setting": "gene CTSK, hepatocytes", "result": 0}, {"measurement": "RNA-seq results: CYB5A expression", "setting": "gene CYB5A, hepatocytes", "result": 0.21}, {"measurement": "RNA-seq results: CYB5R3 expression", "setting": "gene CYB5R3, hepatocytes", "result": 0.07}, {"measurement": "RNA-seq results: CYP27A1 expression", "setting": "gene CYP27A1, hepatocytes", "result": 0.12}, {"measurement": "RNA-seq results: DAO expression", "setting": "gene DAO, hepatocytes", "result": "−0.72"}, {"measurement": "RNA-seq results: DBT expression", "setting": "gene DBT, hepatocytes", "result": 0}, {"measurement": "RNA-seq results: DCDC2 expression", "setting": "gene DCDC2, hepatocytes", "result": "−0.51"}, {"measurement": "RNA-seq results: DCXR expression", "setting": "gene DCXR, hepatocytes", "result": 0.37}, {"measurement": "RNA-seq results: FABP1 expression", "setting": "gene FABP1, hepatocytes", "result": 0.58}, {"measurement": "RNA-seq results: FADD expression", "setting": "gene FADD, hepatocytes", "result": 0.43}, {"measurement": "RNA-seq results: FAM111A expression", "setting": "gene FAM111A, hepatocytes", "result": "−0.26"}, {"measurement": "RNA-seq results: FAM111B expression", "setting": "gene FAM111B, hepatocytes", "result": "−1.74"}, {"measurement": "RNA-seq results: FAN1 expression", "setting": "gene FAN1, hepatocytes", "result": 0.14}, {"measurement": "RNA-seq results: FARS2 expression", "setting": "gene FARS2, hepatocytes", "result": 0.06}, {"measurement": "RNA-seq results: FASLG expression", "setting": "gene FASLG, hepatocytes", "result": "−1.19"}, {"measurement": "RNA-seq results: FGA expression", "setting": "gene FGA, hepatocytes", "result": "−0.25"}, {"measurement": "RNA-seq results: FGD1 expression", "setting": "gene FGD1, hepatocytes", "result": "−0.63"}, {"measurement": "RNA-seq results: FGFR2 expression", "setting": "gene FGFR2, hepatocytes", "result": 0.15}, {"measurement": "RNA-seq results: FIG4 expression", "setting": "gene FIG4, hepatocytes", "result": 0}, {"measurement": "RNA-seq results: FIS1 expression", "setting": "gene FIS1, hepatocytes", "result": 0.52}, {"measurement": "RNA-seq results: FTCD expression", "setting": "gene FTCD, hepatocytes", "result": "−0.05"}, {"measurement": "RNA-seq results: FTH1 expression", "setting": "gene FTH1, hepatocytes", "result": 0.6}, {"measurement": "RNA-seq results: FUCA1 expression", "setting": "gene FUCA1, hepatocytes", "result": 0.01}, {"measurement": "RNA-seq results: FXN expression", "setting": "gene FXN, hepatocytes", "result": "−0.17"}, {"measurement": "RNA-seq results: G6PC3 expression", "setting": "gene G6PC3, hepatocytes", "result": "−0.07"}, {"measurement": "RNA-seq results: G6PC expression", "setting": "gene G6PC, hepatocytes", "result": "−0.17"}, {"measurement": "RNA-seq results: G6PD expression", "setting": "gene G6PD, hepatocytes", "result": "−0.05"}, {"measurement": "RNA-seq results: GALK1 expression", "setting": "gene GALK1, hepatocytes", "result": 0.4}, {"measurement": "RNA-seq results: GALK2 expression", "setting": "gene GALK2, hepatocytes", "result": 0.22}, {"measurement": "RNA-seq results: GALT expression", "setting": "gene GALT, hepatocytes", "result": "−0.21"}, {"measurement": "RNA-seq results: GATA6 expression", "setting": "gene GATA6, hepatocytes", "result": 0.17}, {"measurement": "RNA-seq results: GATM expression", "setting": "gene GATM, hepatocytes", "result": "−0.33"}, {"measurement": "RNA-seq results: GBA expression", "setting": "gene GBA, hepatocytes", "result": "−0.07"}, {"measurement": "RNA-seq results: GBE1 expression", "setting": "gene GBE1, hepatocytes", "result": 0.39}, {"measurement": "RNA-seq results: GCH1 expression", "setting": "gene GCH1, hepatocytes", "result": 0.23}, {"measurement": "RNA-seq results: GCKR expression", "setting": "gene GCKR, hepatocytes", "result": "−0.19"}, {"measurement": "RNA-seq results: GCLC expression", "setting": "gene GCLC, hepatocytes", "result": 0.13}, {"measurement": "RNA-seq results: GOSH expression", "setting": "gene GOSH, hepatocytes", "result": 0.22}, {"measurement": "RNA-seq results: RRM2B", "setting": "gene RRM2B, hepatocytes", "result": 0.48}, {"measurement": "RNA-seq results: RSAD1", "setting": "gene RSAD1, hepatocytes", "result": "−0.11"}, {"measurement": "RNA-seq results: SAMHD1", "setting": "gene SAMHD1, hepatocytes", "result": 0.25}, {"measurement": "RNA-seq results: SC5D", "setting": "gene SC5D, hepatocytes", "result": "−0.01"}, {"measurement": "RNA-seq results: SCARB1", "setting": "gene SCARB1, hepatocytes", "result": "−0.17"}, {"measurement": "RNA-seq results: SCN9A", "setting": "gene SCN9A, hepatocytes", "result": 0.25}, {"measurement": "RNA-seq results: SDCCAG8", "setting": "gene SDCCAG8, hepatocytes", "result": "−0.03"}, {"measurement": "RNA-seq results: SEPN1", "setting": "gene SEPN1, hepatocytes", "result": 0.28}, {"measurement": "RNA-seq results: SERAC1", "setting": "gene SERAC1, hepatocytes", "result": 0.29}, {"measurement": "RNA-seq results: SERPINA1", "setting": "gene SERPINA1, hepatocytes", "result": "−0.19"}, {"measurement": "RNA-seq results: SERPING1", "setting": "gene SERPING1, hepatocytes", "result": "−0.11"}, {"measurement": "RNA-seq results: SERPINI1", "setting": "gene SERPINI1, hepatocytes", "result": "−0.19"}, {"measurement": "RNA-seq results: SETBP1", "setting": "gene SETBP1, hepatocytes", "result": "−0.14"}, {"measurement": "RNA-seq results: SFXN4", "setting": "gene SFXN4, hepatocytes", "result": "−0.46"}, {"measurement": "RNA-seq results: SLC10A1", "setting": "gene SLC10A1, hepatocytes", "result": "−0.03"}, {"measurement": "RNA-seq results: SLC10A3", "setting": "gene SLC10A3, hepatocytes", "result": 0.11}, {"measurement": "RNA-seq results: SLC10A5", "setting": "gene SLC10A5, hepatocytes", "result": 0.18}, {"measurement": "RNA-seq results: SLC10A7", "setting": "gene SLC10A7, hepatocytes", "result": 0.23}, {"measurement": "RNA-seq results: SLC11A2", "setting": "gene SLC11A2, hepatocytes", "result": 0.32}, {"measurement": "RNA-seq results: SLC19A1", "setting": "gene SLC19A1, hepatocytes", "result": "−0.21"}, {"measurement": "RNA-seq results: SLC19A2", "setting": "gene SLC19A2, hepatocytes", "result": 0.32}, {"measurement": "RNA-seq results: SLC19A3", "setting": "gene SLC19A3, hepatocytes", "result": "−0.31"}, {"measurement": "RNA-seq results: SLC22A1", "setting": "gene SLC22A1, hepatocytes", "result": "−0.22"}, {"measurement": "RNA-seq results: SLC22A5", "setting": "gene SLC22A5, hepatocytes", "result": "−0.06"}, {"measurement": "RNA-seq results: SLC25A1", "setting": "gene SLC25A1, hepatocytes", "result": "−0.33"}, {"measurement": "RNA-seq results: SLC25A10", "setting": "gene SLC25A10, hepatocytes", "result": "−0.31"}, {"measurement": "RNA-seq results: SLC25A12", "setting": "gene SLC25A12, hepatocytes", "result": "−0.27"}, {"measurement": "RNA-seq results: SLC25A13", "setting": "gene SLC25A13, hepatocytes", "result": 0.25}, {"measurement": "RNA-seq results: SLC25A15", "setting": "gene SLC25A15, hepatocytes", "result": "−0.09"}, {"measurement": "RNA-seq results: SLC25A19", "setting": "gene SLC25A19, hepatocytes", "result": "−0.43"}, {"measurement": "RNA-seq results: SLC25A20", "setting": "gene SLC25A20, hepatocytes", "result": "−0.35"}, {"measurement": "RNA-seq results: SLC25A29", "setting": "gene SLC25A29, hepatocytes", "result": "−0.13"}, {"measurement": "RNA-seq results: SLC25A32", "setting": "gene SLC25A32, hepatocytes", "result": "−0.10"}]}
